Data as given in the kinase profiling compilation of Christmann-Franck et al. (2016).

Columns and labels:
Assay in all cases: radiometric filter-binding kinase assay
[1] = molecular target: MAPKAPK5 (human) (UniProt Q8IW41)
[2] = molecular target: MAP3K9 (human) (UniProt P80192)
[3] = molecular target: MAPK14 (human) (UniProt Q16539)
[4] = molecular target: EPHA2 (human) (UniProt P29317)
[5] = test system: ROCK2 (rat); details: accession and sequence are those of the human protein
[6] = molecular target: MAPK11 (human) (UniProt Q15759)
[7] = molecular target: PAK6 (human) (UniProt Q9NQU5)
[8] = molecular target: MARK1 (human) (UniProt Q9P0L2)
[9] = molecular target: NEK6 (human) (UniProt Q9HC98)
[10] = molecular target: EPHB3 (human) (UniProt P54753)
[11] = molecular target: EEF2K (human) (UniProt O00418)
[12] = molecular target: HIPK2 (human) (UniProt Q9H2X6)
[13] = molecular target: PAK4 (human) (UniProt O96013)
[14] = molecular target: DYRK2 (human) (UniProt Q92630)
[15] = molecular target: IKBKE (human) (UniProt Q14164)
[16] = test system: AKT1 (human), P31749 [S473D]
[17] = molecular target: BTK (human) (UniProt Q06187)
[18] = molecular target: ERBB4 (human) (UniProt Q15303)
[19] = molecular target: PRKCZ (human) (UniProt Q05513)
[20] = molecular target: EPHB1 (human) (UniProt P54762)
[21] = molecular target: DAPK1 (human) (UniProt P53355)
[22] = molecular target: CaMK1 (human) (UniProt Q14012)
[23] = molecular target: NUAK1 (human) (UniProt O60285)
[24] = molecular target: DYRK3 (human) (UniProt O43781)
[25] = molecular target: HIPK3 (human) (UniProt Q9H422)
[26] = molecular target: PAK7 (human) (UniProt Q9P286)
[27] = molecular target: DYRK1A (human) (UniProt Q13627)
[28] = molecular target: MARK3 (human) (UniProt P27448)
[29] = test system: LCK (mouse); details: accession and sequence are those of the human protein
[30] = molecular target: RPS6KA5 KD1 KD2 (human) (UniProt O75582)
[31] = molecular target: MAP2K6 (human) (UniProt P52564)
[32] = molecular target: CSNK2A1 (human) (UniProt P68400)
[33] = molecular target: HIPK1 (human) (UniProt Q86Z02)
[34] = molecular target: TAOK1 (human) (UniProt Q7L7X3)
[35] = molecular target: MAPK13 (human) (UniProt O15264)
[36] = molecular target: MST4 (human) (UniProt Q9P289)

Sequence of EPHA2 (human) (P29317 whole entry, looked up): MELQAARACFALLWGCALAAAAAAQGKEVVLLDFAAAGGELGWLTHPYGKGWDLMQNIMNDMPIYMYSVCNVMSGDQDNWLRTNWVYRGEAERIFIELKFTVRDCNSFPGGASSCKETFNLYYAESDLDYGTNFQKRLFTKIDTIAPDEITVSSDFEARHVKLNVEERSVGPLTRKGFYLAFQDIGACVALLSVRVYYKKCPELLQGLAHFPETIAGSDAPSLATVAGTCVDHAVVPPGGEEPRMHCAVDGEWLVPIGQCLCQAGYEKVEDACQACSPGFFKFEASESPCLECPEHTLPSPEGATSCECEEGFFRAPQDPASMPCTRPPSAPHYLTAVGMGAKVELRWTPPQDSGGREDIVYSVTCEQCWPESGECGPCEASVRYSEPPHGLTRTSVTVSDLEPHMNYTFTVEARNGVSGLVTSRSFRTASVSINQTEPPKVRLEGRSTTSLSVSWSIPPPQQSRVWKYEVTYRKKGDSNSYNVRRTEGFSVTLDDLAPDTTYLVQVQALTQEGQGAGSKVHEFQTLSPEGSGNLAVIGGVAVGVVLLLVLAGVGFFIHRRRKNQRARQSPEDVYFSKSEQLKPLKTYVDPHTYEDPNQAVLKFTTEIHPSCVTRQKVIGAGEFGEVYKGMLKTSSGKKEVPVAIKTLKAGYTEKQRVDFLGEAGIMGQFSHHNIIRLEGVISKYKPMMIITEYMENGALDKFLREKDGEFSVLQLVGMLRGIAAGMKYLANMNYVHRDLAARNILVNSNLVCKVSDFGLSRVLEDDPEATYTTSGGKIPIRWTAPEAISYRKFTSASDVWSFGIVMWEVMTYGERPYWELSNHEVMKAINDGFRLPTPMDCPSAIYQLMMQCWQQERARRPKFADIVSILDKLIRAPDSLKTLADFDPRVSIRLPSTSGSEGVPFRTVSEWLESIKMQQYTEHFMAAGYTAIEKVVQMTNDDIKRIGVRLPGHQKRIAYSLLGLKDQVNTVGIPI
Sequence of HIPK3 (human) (Q9H422 whole entry, looked up): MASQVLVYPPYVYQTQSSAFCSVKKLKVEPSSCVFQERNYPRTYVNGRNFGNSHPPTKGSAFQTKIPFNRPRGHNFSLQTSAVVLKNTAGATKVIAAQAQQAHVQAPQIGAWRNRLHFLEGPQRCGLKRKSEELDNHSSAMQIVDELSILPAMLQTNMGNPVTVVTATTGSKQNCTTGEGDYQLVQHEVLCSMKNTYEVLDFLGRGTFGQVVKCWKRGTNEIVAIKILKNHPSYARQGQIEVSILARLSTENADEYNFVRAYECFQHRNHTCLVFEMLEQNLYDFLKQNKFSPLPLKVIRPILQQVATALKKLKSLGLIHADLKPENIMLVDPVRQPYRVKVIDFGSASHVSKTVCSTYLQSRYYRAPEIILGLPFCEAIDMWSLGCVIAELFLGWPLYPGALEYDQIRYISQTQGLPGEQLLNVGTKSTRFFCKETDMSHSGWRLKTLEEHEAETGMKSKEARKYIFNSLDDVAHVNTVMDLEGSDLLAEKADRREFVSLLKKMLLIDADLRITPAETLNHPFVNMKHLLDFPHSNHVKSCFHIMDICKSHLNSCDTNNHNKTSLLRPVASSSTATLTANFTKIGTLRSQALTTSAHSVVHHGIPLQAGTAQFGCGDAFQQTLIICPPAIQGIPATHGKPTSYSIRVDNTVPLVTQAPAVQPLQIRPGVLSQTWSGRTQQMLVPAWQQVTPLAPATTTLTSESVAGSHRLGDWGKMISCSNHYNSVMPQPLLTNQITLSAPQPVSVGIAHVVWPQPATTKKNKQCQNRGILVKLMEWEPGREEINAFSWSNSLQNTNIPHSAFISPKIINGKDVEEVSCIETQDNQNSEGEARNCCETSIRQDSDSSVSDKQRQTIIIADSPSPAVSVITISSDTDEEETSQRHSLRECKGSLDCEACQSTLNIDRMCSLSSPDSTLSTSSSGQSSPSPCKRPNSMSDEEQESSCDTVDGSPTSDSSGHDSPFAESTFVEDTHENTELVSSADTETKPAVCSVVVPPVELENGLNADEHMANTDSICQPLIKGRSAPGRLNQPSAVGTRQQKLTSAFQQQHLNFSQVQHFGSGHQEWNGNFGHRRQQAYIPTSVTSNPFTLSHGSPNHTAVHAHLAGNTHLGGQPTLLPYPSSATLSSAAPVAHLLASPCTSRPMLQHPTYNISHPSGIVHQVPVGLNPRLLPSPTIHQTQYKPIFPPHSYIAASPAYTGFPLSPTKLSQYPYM
Sequence of DAPK1 (human) (P53355 whole entry, looked up): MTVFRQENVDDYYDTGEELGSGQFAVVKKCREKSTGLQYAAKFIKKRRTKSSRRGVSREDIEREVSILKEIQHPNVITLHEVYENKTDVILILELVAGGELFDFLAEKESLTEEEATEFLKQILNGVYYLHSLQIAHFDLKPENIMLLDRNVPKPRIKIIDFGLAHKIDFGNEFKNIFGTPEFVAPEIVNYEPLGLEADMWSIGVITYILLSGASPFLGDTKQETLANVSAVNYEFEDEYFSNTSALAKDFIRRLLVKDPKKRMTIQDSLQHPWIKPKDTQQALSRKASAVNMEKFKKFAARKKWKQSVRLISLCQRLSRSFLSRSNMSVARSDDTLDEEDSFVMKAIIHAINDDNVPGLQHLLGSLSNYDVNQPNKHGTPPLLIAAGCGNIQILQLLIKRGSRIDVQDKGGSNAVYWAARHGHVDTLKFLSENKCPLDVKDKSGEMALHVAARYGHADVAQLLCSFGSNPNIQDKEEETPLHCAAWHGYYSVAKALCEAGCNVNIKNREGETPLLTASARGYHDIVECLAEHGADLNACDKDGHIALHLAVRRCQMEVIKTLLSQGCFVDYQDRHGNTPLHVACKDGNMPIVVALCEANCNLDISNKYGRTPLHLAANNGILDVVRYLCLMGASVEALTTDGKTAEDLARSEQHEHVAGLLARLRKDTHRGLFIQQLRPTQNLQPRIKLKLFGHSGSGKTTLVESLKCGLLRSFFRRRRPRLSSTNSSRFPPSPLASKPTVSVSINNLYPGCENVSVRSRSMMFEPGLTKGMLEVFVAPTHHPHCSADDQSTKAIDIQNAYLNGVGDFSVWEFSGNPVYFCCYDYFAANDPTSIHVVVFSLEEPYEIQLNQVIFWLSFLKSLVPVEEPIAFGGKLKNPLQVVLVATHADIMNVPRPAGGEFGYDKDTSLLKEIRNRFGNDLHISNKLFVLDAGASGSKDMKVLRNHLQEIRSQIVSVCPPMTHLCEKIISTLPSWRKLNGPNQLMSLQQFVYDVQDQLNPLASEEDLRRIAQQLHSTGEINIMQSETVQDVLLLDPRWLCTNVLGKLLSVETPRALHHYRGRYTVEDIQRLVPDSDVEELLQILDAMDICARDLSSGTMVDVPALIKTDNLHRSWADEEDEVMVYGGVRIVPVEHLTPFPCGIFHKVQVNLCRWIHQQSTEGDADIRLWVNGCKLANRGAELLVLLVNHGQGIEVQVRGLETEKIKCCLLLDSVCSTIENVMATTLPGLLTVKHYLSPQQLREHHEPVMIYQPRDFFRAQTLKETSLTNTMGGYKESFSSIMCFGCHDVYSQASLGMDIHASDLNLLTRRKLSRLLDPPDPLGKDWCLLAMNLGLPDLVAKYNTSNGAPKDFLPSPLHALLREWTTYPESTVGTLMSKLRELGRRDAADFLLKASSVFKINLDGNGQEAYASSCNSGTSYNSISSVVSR
Sequence of PRKCZ (human) (Q05513 whole entry, looked up): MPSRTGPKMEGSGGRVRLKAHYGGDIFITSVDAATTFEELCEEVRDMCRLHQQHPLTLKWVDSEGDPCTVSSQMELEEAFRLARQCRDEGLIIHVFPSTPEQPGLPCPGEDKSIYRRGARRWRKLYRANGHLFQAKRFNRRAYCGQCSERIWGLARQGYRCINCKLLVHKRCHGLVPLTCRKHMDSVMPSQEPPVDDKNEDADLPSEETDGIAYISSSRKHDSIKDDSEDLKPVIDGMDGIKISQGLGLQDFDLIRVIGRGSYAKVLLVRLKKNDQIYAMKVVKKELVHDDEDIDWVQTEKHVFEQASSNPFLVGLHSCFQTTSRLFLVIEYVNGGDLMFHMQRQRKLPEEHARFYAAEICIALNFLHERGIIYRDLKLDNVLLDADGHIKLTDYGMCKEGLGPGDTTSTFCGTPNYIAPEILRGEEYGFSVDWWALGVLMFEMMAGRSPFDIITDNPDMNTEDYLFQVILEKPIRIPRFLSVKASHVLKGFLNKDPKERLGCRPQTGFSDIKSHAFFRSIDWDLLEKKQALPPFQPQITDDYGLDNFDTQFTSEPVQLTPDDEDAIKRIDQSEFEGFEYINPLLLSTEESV
Sequence of MARK1 (human) (Q9P0L2 whole entry, looked up): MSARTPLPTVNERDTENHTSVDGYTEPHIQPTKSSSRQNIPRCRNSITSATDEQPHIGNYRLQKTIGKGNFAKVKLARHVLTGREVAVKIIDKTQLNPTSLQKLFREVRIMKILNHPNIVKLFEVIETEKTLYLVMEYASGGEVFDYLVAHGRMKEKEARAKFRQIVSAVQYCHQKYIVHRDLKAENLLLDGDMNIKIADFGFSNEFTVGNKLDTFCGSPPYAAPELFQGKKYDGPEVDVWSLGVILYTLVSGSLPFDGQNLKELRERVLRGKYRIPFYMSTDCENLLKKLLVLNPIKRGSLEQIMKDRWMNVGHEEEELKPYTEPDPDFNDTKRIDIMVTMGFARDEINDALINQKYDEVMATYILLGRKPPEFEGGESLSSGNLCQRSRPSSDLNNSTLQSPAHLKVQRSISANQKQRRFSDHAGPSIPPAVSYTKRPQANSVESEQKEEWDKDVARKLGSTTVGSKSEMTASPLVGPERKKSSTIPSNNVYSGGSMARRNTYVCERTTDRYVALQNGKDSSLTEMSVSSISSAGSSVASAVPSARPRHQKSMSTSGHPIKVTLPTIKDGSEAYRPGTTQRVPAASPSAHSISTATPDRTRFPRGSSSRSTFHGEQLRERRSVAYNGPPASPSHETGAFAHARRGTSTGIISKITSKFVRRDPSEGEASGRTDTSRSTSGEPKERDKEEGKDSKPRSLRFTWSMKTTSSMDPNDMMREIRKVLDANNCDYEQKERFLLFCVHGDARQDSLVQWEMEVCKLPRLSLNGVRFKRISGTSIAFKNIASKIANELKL

How did the residual activity ([1]; compound 1.0 µM) turn out when `NC(=O)c1ccc(-c2ccc(Oc3cncc4sc(-c5nn[nH]n5)cc34)cc2)cc1` was run?
The residual activity was 104%.

What about the residual activity ([1]; compound 10.0 µM) of the same compound?
The residual activity was 56%.

And the residual activity ([2]; compound 1.0 µM)?
The residual activity was 95%.

What about the residual activity ([2]; compound 10.0 µM) of the same compound?
The residual activity was 42%.

And the residual activity ([3]; compound 1.0 µM)?
Its residual activity is 106%.

What about the residual activity ([3]; compound 10.0 µM) of the same compound?
Its residual activity is 98%.

And the residual activity ([4]; compound 1.0 µM)?
Its residual activity is 94%.

And the residual activity ([4]; compound 10.0 µM)?
Its residual activity is 89%.

What about the residual activity ([5]; compound 1.0 µM) of the same compound?
The residual activity was 73%.

What about the residual activity ([5]; compound 10.0 µM) of the same compound?
The residual activity was 38%.

What about the residual activity ([6]; compound 1.0 µM) of the same compound?
Its residual activity is 97%.

What about the residual activity ([6]; compound 10.0 µM) of the same compound?
Its residual activity is 104%.

And the residual activity ([7]; compound 1.0 µM)?
Its residual activity is 89%.

What about the residual activity ([7]; compound 10.0 µM) of the same compound?
The residual activity was 87%.

What about the residual activity ([8]; compound 1.0 µM) of the same compound?
Its residual activity is 89%.

And the residual activity ([8]; compound 10.0 µM)?
The residual activity was 78%.

What about the residual activity ([9]; compound 1.0 µM) of the same compound?
The residual activity was 98%.

And the residual activity ([9]; compound 10.0 µM)?
The residual activity was 94%.

What about the residual activity ([10]; compound 1.0 µM) of the same compound?
Its residual activity is 93%.

What about the residual activity ([10]; compound 10.0 µM) of the same compound?
Its residual activity is 96%.

And the residual activity ([11]; compound 1.0 µM)?
The residual activity was 100%.

And the residual activity ([11]; compound 10.0 µM)?
The residual activity was 101%.

And the residual activity ([12]; compound 1.0 µM)?
The residual activity was 64%.

What about the residual activity ([12]; compound 10.0 µM) of the same compound?
The residual activity was 10%.

What about the residual activity ([13]; compound 1.0 µM) of the same compound?
Its residual activity is 89%.

And the residual activity ([13]; compound 10.0 µM)?
The residual activity was 54%.

What about the residual activity ([14]; compound 1.0 µM) of the same compound?
The residual activity was 7%.

What about the residual activity ([14]; compound 10.0 µM) of the same compound?
The residual activity was 2%.

What about the residual activity ([15]; compound 1.0 µM) of the same compound?
Its residual activity is 89%.

And the residual activity ([15]; compound 10.0 µM)?
Its residual activity is 69%.

What about the residual activity ([16]; compound 1.0 µM) of the same compound?
Its residual activity is 96%.

What about the residual activity ([16]; compound 10.0 µM) of the same compound?
The residual activity was 78%.

And the residual activity ([17]; compound 1.0 µM)?
The residual activity was 95%.

What about the residual activity ([17]; compound 10.0 µM) of the same compound?
The residual activity was 71%.

And the residual activity ([18]; compound 1.0 µM)?
Its residual activity is 88%.

What about the residual activity ([18]; compound 10.0 µM) of the same compound?
Its residual activity is 73%.

What about the residual activity ([19]; compound 1.0 µM) of the same compound?
The residual activity was 100%.

And the residual activity ([19]; compound 10.0 µM)?
The residual activity was 67%.

What about the residual activity ([20]; compound 1.0 µM) of the same compound?
Its residual activity is 95%.

And the residual activity ([20]; compound 10.0 µM)?
Its residual activity is 107%.

What about the residual activity ([21]; compound 1.0 µM) of the same compound?
The residual activity was 88%.

What about the residual activity ([21]; compound 10.0 µM) of the same compound?
Its residual activity is 18%.

And the residual activity ([22]; compound 1.0 µM)?
Its residual activity is 105%.

And the residual activity ([22]; compound 10.0 µM)?
Its residual activity is 85%.

And the residual activity ([23]; compound 1.0 µM)?
The residual activity was 92%.

What about the residual activity ([23]; compound 10.0 µM) of the same compound?
Its residual activity is 78%.

And the residual activity ([24]; compound 1.0 µM)?
Its residual activity is 15%.

And the residual activity ([24]; compound 10.0 µM)?
The residual activity was 6%.

What about the residual activity ([25]; compound 1.0 µM) of the same compound?
Its residual activity is 96%.

What about the residual activity ([25]; compound 10.0 µM) of the same compound?
Its residual activity is 10%.

What about the residual activity ([26]; compound 1.0 µM) of the same compound?
Its residual activity is 81%.

And the residual activity ([26]; compound 10.0 µM)?
Its residual activity is 66%.

And the residual activity ([27]; compound 1.0 µM)?
Its residual activity is 21%.

What about the residual activity ([27]; compound 10.0 µM) of the same compound?
Its residual activity is 3%.

And the residual activity ([28]; compound 1.0 µM)?
Its residual activity is 94%.

What about the residual activity ([28]; compound 10.0 µM) of the same compound?
The residual activity was 71%.

And the residual activity ([29]; compound 1.0 µM)?
Its residual activity is 113%.

And the residual activity ([29]; compound 10.0 µM)?
Its residual activity is 99%.

And the residual activity ([30]; compound 1.0 µM)?
The residual activity was 90%.

And the residual activity ([30]; compound 10.0 µM)?
The residual activity was 20%.

And the residual activity ([31]; compound 1.0 µM)?
Its residual activity is 104%.

And the residual activity ([31]; compound 10.0 µM)?
Its residual activity is 99%.

What about the residual activity ([32]; compound 1.0 µM) of the same compound?
Its residual activity is 30%.

What about the residual activity ([32]; compound 10.0 µM) of the same compound?
Its residual activity is 6%.

And the residual activity ([33]; compound 1.0 µM)?
The residual activity was 104%.

And the residual activity ([33]; compound 10.0 µM)?
Its residual activity is 9%.

What about the residual activity ([34]; compound 1.0 µM) of the same compound?
The residual activity was 82%.

And the residual activity ([34]; compound 10.0 µM)?
The residual activity was 36%.

And the residual activity ([35]; compound 1.0 µM)?
The residual activity was 92%.

What about the residual activity ([35]; compound 10.0 µM) of the same compound?
The residual activity was 54%.

And the residual activity ([36]; compound 1.0 µM)?
Its residual activity is 93%.

What about the residual activity ([36]; compound 10.0 µM) of the same compound?
The residual activity was 61%.

Which results are given for `COc1cc(O)c2c(c1)/C=C/C[C@H](O)[C@H](O)C(=O)/C=C\C[C@H](C)OC2=O`?
residual activity ([1]; compound 0.1 µM): 66%; residual activity ([1]; compound 1.0 µM): 14%; residual activity ([2]; compound 0.1 µM): 109%; residual activity ([2]; compound 1.0 µM): 75%; residual activity ([3]; compound 0.1 µM): 103%; residual activity ([3]; compound 1.0 µM): 85%; residual activity ([4]; compound 0.1 µM): 99%; residual activity ([4]; compound 1.0 µM): 55%; residual activity ([5]; compound 0.1 µM): 116%; residual activity ([5]; compound 1.0 µM): 83%; residual activity ([6]; compound 0.1 µM): 90%; residual activity ([6]; compound 1.0 µM): 72%; residual activity ([7]; compound 0.1 µM): 100%; residual activity ([7]; compound 1.0 µM): 87%; residual activity ([8]; compound 0.1 µM): 112%; residual activity ([8]; compound 1.0 µM): 99%; residual activity ([9]; compound 0.1 µM): 122%; residual activity ([9]; compound 1.0 µM): 93%; residual activity ([10]; compound 0.1 µM): 111%; residual activity ([10]; compound 1.0 µM): 100%; residual activity ([11]; compound 1.0 µM): 85%; residual activity ([12]; compound 0.1 µM): 98%; residual activity ([12]; compound 1.0 µM): 82%; residual activity ([13]; compound 0.1 µM): 94%; residual activity ([13]; compound 1.0 µM): 81%; residual activity ([14]; compound 0.1 µM): 114%; residual activity ([14]; compound 1.0 µM): 89%; residual activity ([15]; compound 0.1 µM): 120%; residual activity ([15]; compound 1.0 µM): 92%; residual activity ([16]; compound 0.1 µM): 111%; residual activity ([16]; compound 1.0 µM): 91%; residual activity ([17]; compound 0.1 µM): 90%; residual activity ([17]; compound 1.0 µM): 93%; residual activity ([18]; compound 0.1 µM): 100%; residual activity ([18]; compound 1.0 µM): 95%; residual activity ([19]; compound 0.1 µM): 105%; residual activity ([19]; compound 1.0 µM): 99%; residual activity ([20]; compound 0.1 µM): 99%; residual activity ([20]; compound 1.0 µM): 81%; residual activity ([21]; compound 0.1 µM): 108%; residual activity ([21]; compound 1.0 µM): 94%; residual activity ([22]; compound 0.1 µM): 88%; residual activity ([22]; compound 1.0 µM): 105%; residual activity ([23]; compound 0.1 µM): 113%; residual activity ([23]; compound 1.0 µM): 78%; residual activity ([24]; compound 0.1 µM): 94%; residual activity ([24]; compound 1.0 µM): 101%; residual activity ([25]; compound 0.1 µM): 90%; residual activity ([25]; compound 1.0 µM): 103%; residual activity ([26]; compound 0.1 µM): 96%; residual activity ([26]; compound 1.0 µM): 103%; residual activity ([27]; compound 0.1 µM): 117%; residual activity ([27]; compound 1.0 µM): 97%; residual activity ([28]; compound 0.1 µM): 116%; residual activity ([28]; compound 1.0 µM): 77%; residual activity ([29]; compound 0.1 µM): 78%; residual activity ([29]; compound 1.0 µM): 30%; residual activity ([30]; compound 1.0 µM): 100%; residual activity ([31]; compound 0.1 µM): 12%; residual activity ([31]; compound 1.0 µM): 10%; residual activity ([32]; compound 0.1 µM): 106%; residual activity ([32]; compound 1.0 µM): 77%; residual activity ([33]; compound 0.1 µM): 102%; residual activity ([33]; compound 1.0 µM): 98%; residual activity ([34]; compound 0.1 µM): 103%; residual activity ([34]; compound 1.0 µM): 66%; residual activity ([35]; compound 0.1 µM): 99%; residual activity ([35]; compound 1.0 µM): 114%; residual activity ([36]; compound 0.1 µM): 129%; residual activity ([36]; compound 1.0 µM): 72%
